According to US10561638B2, “Methods for treating dependence” (Biotie Therapies, Inc., priority 2007, dated 2020):

Experiments:
[1] = in vivo; cited from earlier work
[2] = system: CD-1 (ICR) mice; assay: Locomotor activity in mice, intraperitoneal; assay type: in vivo; details: i.p.; nepicastat 3-100, SKF-102698 30 and 100, cocaine 30 mg/kg
Text: Adult male CD-1 (ICR) mice (30-40 g on study day) were housed in groups of eight under a normal light/dark cycle with lights on between 0900 hr and 2100 hr. Food and water were allowed ad libitum. All animals were naive to drug treatment and behavioral testing. Each animal was only used once.
Locomotor activity was monitored in an automated 14 station activity monitoring system (San Diego Instrument Co.). Each station consisted of a clear perspex cage (25 cm×45 cm×20 cm; w×1×h) placed within a metal frame containing 3 photoemmitors and 3 photodetectors spaced equally along the length of the wall. The bottom of each cage was lightly covered in clean cedar bedding.
The mice were placed in the testing room at least 1 hr prior to testing. The mice were placed individually into one of the activity cages and allowed to explore for 30 min. […] Following a 60 minute pre-treatment period, motor activity was monitored for 180 minutes. Activity counts and ambulations (defined as a break of 2 consecutive photobeams) for each animal were recorded every 30 minutes.
A repeated measures two-way analysis of variance (ANOVA) was performed using the overall ranked data (nonparametric technique) to test for the overall effects of treatment, time interval and treatment by time interval interaction. […]

[3] = system: brain dopamine/norepinephrine ratio; assay: Dopamine/norepinephrine ratios in the brain of rodents; details: in vivo
Procedure: Dopamine/norepinephrine ratios in the brain of rodents treated with nepicastat were determined. Dopamine/norepinephrine ratios increased in the brains of rodents treated with nepicastat or disulfuram.

[4] = cited from earlier work

| Structure (SMILES) | elimination half-life [1] | total activity counts and ambulations vs vehicle [2] | dopamine/norepinephrine ratios in the brain [3] | cocaine use vs placebo ([4]; disulfuram 250 mg per day) | elevations in plasma cocaine levels ([4]; intranasal cocaine during disulfuram treatment, one controlled study) |
| --- | --- | --- | --- | --- | --- |
| COC(=O)[C@H]1[C@@H](OC(=O)c2ccccc2)C[C@@H]2CC[C@H]1N2C.Cl [cocaine, cocaine hydrochloride] | about 90 min | significantly greater total activity counts |  |  |  |
| CCN(CC)C(=S)SSC(=S)N(CC)CC [disulfuram] |  |  | increased | reduced cocaine use compared to placebo | Six-fold elevations |
